Measurements taken from patent US11185531B2, “Arginine methyltransferase inhibitors and uses thereof” (Epizyme, Inc., priority 2013, dated 2021).

How the values were obtained:
human PRMT6 = target: T1, human PRMT6 (Homo sapiens, UniProt Q96LA8); assay: PRMT6 Biochemical Assay (3H-SAM Flashplate, peptide substrate); conditions: 30 min preincubation
T1 construct: Flag-PRMT6-His was eluted with 200 ug/ml FLAG peptide in the same buffer; made in house; host or cells: HEK 293F cells (BacMam baculovirus, pFastBacMam)
Text: Peptide representative of human histone H4 residues 36-50 was synthesized with an N-terminal linker-affinity tag motif and a C-terminal amide cap by 21st Century Biochemicals. The peptide was purified by high-performance liquid chromatography (HPLC) to greater than 95% purity and confirmed by liquid chromatography mass spectrometry (LC-MS). The sequence was Biot-Ahx-[…]-amide and contained a monomethylated lysine at position 44 (SEQ ID NO:5).
Full-length human PRMT6 (NM_018137.2) transcript clone was amplified from an HEK 293 cDNA library, incorporating a flanking 5′ sequence encoding a FLAG tag ([…]) (SEQ ID NO:6) fused directly to Ser 2 of PRMT6 and a 3′ sequence encoding a hexa His sequence (HHHHHH) fused directly to Asp 375. The amplified gene was subcloned into pFastBacMam (Viva Biotech).
Column was washed with 20 mM imidazole in the same buffer and Flag-PRMT6-His was eluted with 150 mM imidazole. Pooled fractions were dialysed against buffer Ni-A and further purified by anti-flag M2 affinity chromatography. Flag-PRMT6-His was eluted with 200 ug/ml FLAG peptide in the same buffer. Pooled fractions were dialysed in 20 mM Tris, 150 mM NaCl, 10% glycerol and 5 mM 3-mercaptoethanol, pH 7.8. The purity of recovered protein was 95%.
General Procedure for PRMT6 Enzyme Assays on Peptide Substrates.
The assays were all performed in a buffer consisting of 20 mM Bicine (pH=7.6), 1 mM TCEP, 0.005% BSG, and 0.002% Tween 20, prepared on the day of use. Compounds in 100% DMSO (1 ul) were spotted into a polypropylene 384-well V-bottom plates (Greiner) using a Platemate Plus outfitted with a 384-channel head (Thermo Scientific). DMSO (1 ul) was added to Columns 11, 12, 23, 24, rows A-H for the maximum signal control and 1 ul of SAH, a known product and inhibitor of PRMT6, was added to columns 11, 12, 23, 24, rows I-P for the minimum signal control. A cocktail (40 ul) containing the PRMT6 enzyme was added by Multidrop Combi (Thermo-Fisher). The compounds were allowed to incubate with PRMT6 for 30 min at room temperature, then a cocktail (10 ul) containing SAM and peptide was added to initiate the reaction (final volume=51 ul). The final concentrations of the components were as follows: PRMT6 was 1 nM, ^3H-SAM was 200 nM, non-radiolabeled SAM was 250 nM, peptide was 75 nM, SAH in the minimum signal control wells was 1 mM, and the DMSO concentration was 2%. The assays were stopped by the addition of non-radiolabeled SAM (10 ul) to a final concentration of 400 uM, which dilutes the ^3H-SAM to a level where its incorporation into the peptide substrate is no longer detectable. 50 ul of the reaction in the 384-well polypropylene plate was then transferred to a 384-well Flashplate and the biotinylated peptides were allowed to bind to the streptavidin surface for at least 1 hour before being washed once with 0.1% Tween20 in a Biotek ELx405 plate washer. The plates were then read in a PerkinElmer TopCount plate reader to measure the quantity of ^3H-labeled peptide bound to the Flashplate surface, measured as disintegrations per minute (dpm) or alternatively, referred to as counts per minute (cpm).
(§1) Where dpm=disintegrations per minute, cmpd=signal in assay well, and min and max are the respective minimum and maximum signal controls.
(§2) Where top and bottom are the normally allowed to float, but may be fixed at 100 or 0 respectively in a 3-parameter fit. The Hill Coefficient normally allowed to float but may also be fixed at 1 in a 3-parameter fit. Y is the % inhibition and X is the compound concentration.

[1] = test system: mono-methyl arginine in RKO cells; assay: RKO Methylation Assay, In Cell Western for mono-methyl arginine; type: cell-based; conditions: Homo sapiens, 72 hours, percent activation of mono-methyl arginine signal
Text: RKO adherent cells were purchased from ATCC (American Type Culture Collection), Manassas, Va., USA. DMEM/Glutamax medium, penicillin-streptomycin, heat inactivated fetal bovine serum, 0.05% trypsin and D-PBS were purchased from Life Technologies, Grand Island, N.Y., USA. Odyssey blocking buffer, 800 CW goat anti-rabbit IgG (H+L) antibody, and Licor Odyssey infrared scanner were purchased from Licor Biosciences, Lincoln, Nebr., USA. Mono-methyl arginine antibody was purchased from Cell Signaling Technology, Danvers, Mass., USA. Methanol was purchased from VWR, Franklin, Mass., USA. 10% Tween 20 was purchased from KPL, Inc., Gaithersburg, Md., USA. DRAQ5 was purchased from Biostatus Limited, Leicestershire, UK.
RKO adherent cells were maintained in growth medium (DMEM/Glutamax medium supplemented with 10% v/v heat inactivated fetal bovine serum and 100 units/mL penicillin-streptomycin) and cultured at 37° C. under 5% CO2.
Cell Treatment, in Cell Western (ICW) for Detection of Mono-Methyl Arginine and DNA Content.
RKO cells were seeded in assay medium at a concentration of 20,000 cells per mL to a poly-D-lysine coated 384 well culture plate (BD Biosciences 356697) with 50 μL per well. Compound (100 nL) from a 96-well source plate was added directly to 384 well cell plate. Plates were incubated at 37° C., 5% CO2 for 72 hours. After three days of incubation, plates were brought to room temperature outside of the incubator for ten minutes and blotted on paper towels to remove cell media. 50 μL of ice cold 100% methanol was added directly to each well and incubated for 30 min at room temperature. After 30 min, plates were transferred to a Biotek EL406 plate washer and washed 2 times with 100 μL per well of wash buffer (IX PBS). Next 60 μL per well of Odyssey blocking buffer (Odyssey Buffer with 0.1% Tween 20 (v/v)) were added to each plate and incubated 1 hour at room temperature. Blocking buffer was removed and 20 μL per well of primary antibody was added (mono-methyl arginine diluted 1:200 in Odyssey buffer with 0.1% Tween 20 (v/v)) and plates were incubated overnight (16 hours) at 4° C. Plates were washed 5 times with 100 μL per well of wash buffer. Next 20 μL per well of secondary antibody was added (1:200 800 CW goat anti-rabbit IgG (H+L) antibody, 1:1000 DRAQ5 (Biostatus limited) in Odyssey buffer with 0.1% Tween 20 (v/v)) and incubated for 1 hour at room temperature. The plates were washed 5 times with 100 μL per well wash buffer then 2 times with 100 μL per well of water. Plates were allowed to dry at room temperature then imaged on the Licor Odyssey machine which measures integrated intensity at 700 nm and 800 nm wavelengths. Both 700 and 800 channels were scanned.
First, the ratio for each well was determined by:
Each plate included fourteen control wells of DMSO only treatment (minimum activation) as well as fourteen control wells for maximum activation treated with 20 μM of a reference compound. The average of the ratio values for each control type was calculated and used to determine the percent activation for each test well in the plate. Reference compound was serially diluted three-fold in DMSO for a total of nine test concentrations, beginning at 20 μM. Percent activation was determined and EC30 curves were generated using triplicate wells per concentration of compound.

human PRMT8 = target: T2, human PRMT8 (Homo sapiens, UniProt Q9NR22); assay: PRMT8 Biochemical Assay (3H-SAM Flashplate, peptide substrate); conditions: 30 min preincubation
T2 construct: Full-length human PRMT8 (NM_019854.4) isoform 1 transcript clone; GST (N, cleaved yes); made in house; host or cells: E. coli BL21(DE3) Gold
Text: (§3) Peptide representative of human histone H4 residues 31-45 was synthesized with an N-terminal linker-affinity tag motif and a C-terminal amide cap by 21st Century Biochemicals. The peptide was purified by high-performance liquid chromatography (HPLC) to greater than 95% purity and confirmed by liquid chromatography mass spectrometry (LC-MS). The sequence was Biot-Ahx-[…]-amide (SEQ ID NO:8).
The resulting construct encodes an N-terminal GST tag and a thrombin cleavage sequence
GST-tagged PRMT8 was eluted with 50 mM Tris, 2 mM glutathione, pH 7.8. Pooled fractions were cleaved by thrombin (10 U) and dialysed in buffer A. GST was removed by reloading the cleaved protein sample onto glutathione sepharose column and PRMT8 was collected in the flow-through fractions. PRMT8 was purified further by ceramic hydroxyapatite chromatography. The column was washed with 50 mM phosphate buffer, 100 mM NaCl, 5% glycerol, 5 mM 3-mercaptoethanol, pH 7.8 and PRMT8 was eluted by 100 mM phosphate in the same buffer. Protein was concentrated and buffer was exchanged to 50 mM Tris, 300 mM NaCl, 10% glycerol, 5 mM β-mercaptoethanol, pH 7.8 by ultrafiltration. The purity of recovered protein was 89%.
General Procedure for PRMT8 Enzyme Assays on Peptide Substrates.
The assays were all performed in a buffer consisting of 20 mM Bicine (pH=7.6), 1 mM TCEP, 0.005% BSG, and 0.002% Tween 20, prepared on the day of use. Compounds in 100% DMSO (1 ul) were spotted into a polypropylene 384-well V-bottom plates (Greiner) using a Platemate Plus outfitted with a 384-channel head (Thermo Scientific). DMSO (1 ul) was added to Columns 11, 12, 23, 24, rows A-H for the maximum signal control and 1 ul of SAH, a known product and inhibitor of PRMT8, was added to columns 11, 12, 23, 24, rows I-P for the minimum signal control. A cocktail (40 ul) containing the PRMT8 enzyme was added by Multidrop Combi (Thermo-Fisher). The compounds were allowed to incubate with PRMT8 for 30 min at room temperature, then a cocktail (10 ul) containing ^3H-SAM and peptide was added to initiate the reaction (final volume=51 ul). The final concentrations of the components were as follows: PRMT8 was 1.5 nM, ^3H-SAM was 50 nM, non-radiolabeled SAM was 550 nM, peptide was 150 nM, SAH in the minimum signal control wells was 1 mM, and the DMSO concentration was 2%. The assays were stopped by the addition of non-radiolabeled SAM (10 ul) to a final concentration of 400 uM, which dilutes the ^3H-SAM to a level where its incorporation into the peptide substrate is no longer detectable. 50 ul of the reaction in the 384-well polypropylene plate was then transferred to a 384-well Flashplate and the biotinylated peptides were allowed to bind to the streptavidin surface for at least 1 hour before being washed once with 0.1% Tween20 in a Biotek ELx405 plate washer. The plates were then read in a PerkinElmer TopCount plate reader to measure the quantity of ^3H-labeled peptide bound to the Flashplate surface, measured as disintegrations per minute (dpm) or alternatively, referred to as counts per minute (cpm).
as §1, §2

human PRMT1 = target: T3, human PRMT1 (Homo sapiens, UniProt Q99873); assay: PRMT1 Biochemical Assay (3H-SAM Flashplate, peptide substrate); conditions: 30 min preincubation
T3 construct: GST-tagged PRMT1; made in house; host or cells: High Five insect cells (baculovirus)
Text: as §3, with “36-50” for “31-45”, “NO.: 1).” for “NO:8).”
Full-length human PRMT1 isoform 1 (NM_001536.5) transcript clone was amplified from an HEK 293 cDNA library, incorporating flanking 5′ sequence encoding a FLAG tag ([…]) (SEQ ID NO:2) fused directly to Met 1 of PRMT1. The amplified gene was subcloned into pFastBacI (Life Technologies) modified to encode an N-terminal GST tag and a TEV cleavage sequence
GST-tagged PRMT1 was eluted with 50 mM Tris, 2 mM glutathione, pH 7.8, dialysed in buffer A and concentrated to 1 mg/mL. The purity of recovered protein was 73%. Reference: Wasilko, D. J. and S. E. Lee: “TIPS: titerless infected-cells preservation and scale-up” Bioprocess J., 5 (2006), pp. 29-32.
General Procedure for PRMT1 Enzyme Assays on Peptide Substrates.
The assays were all performed in a buffer consisting of 20 mM Bicine (pH=7.6), 1 mM TCEP, 0.005% BSG, and 0.002% Tween 20, prepared on the day of use. Compounds in 100% DMSO (1 ul) were spotted into a polypropylene 384-well V-bottom plates (Greiner) using a Platemate Plus outfitted with a 384-channel head (Thermo Scientific). DMSO (1 ul) was added to Columns 11, 12, 23, 24, rows A-H for the maximum signal control and 1 ul of SAH, a known product and inhibitor of PRMT1, was added to columns 11, 12, 23, 24, rows I-P for the minimum signal control. A cocktail (40 ul) containing the PRMT1 enzyme was added by Multidrop Combi (Thermo-Fisher). The compounds were allowed to incubate with PRMT1 for 30 min at room temperature, then a cocktail (10 ul) containing SAM and peptide was added to initiate the reaction (final volume=51 ul). The final concentrations of the components were as follows: PRMT1 was 0.5 nM, ^3H-SAM was 200 nM, non-radiolabeled SAM was 1.5 uM, peptide was 20 nM, SAH in the minimum signal control wells was 1 mM, and the DMSO concentration was 2%. The assays were stopped by the addition of non-radiolabeled SAM (10 ul) to a final concentration of 300 uM, which dilutes the ^3H-SAM to a level where its incorporation into the peptide substrate is no longer detectable. 50 ul of the reaction in the 384-well polypropylene plate was then transferred to a 384-well Flashplate and the biotinylated peptides were allowed to bind to the streptavidin surface for at least 1 hour before being washed once with 0.1% Tween20 in a Biotek ELx405 plate washer. The plates were then read in a PerkinElmer TopCount plate reader to measure the quantity of ^3H-labeled peptide bound to the Flashplate surface, measured as disintegrations per minute (dpm) or alternatively, referred to as counts per minute (cpm).
as §1, §2

T1 sequence (Q96LA8 with tags, fused parts or gaps): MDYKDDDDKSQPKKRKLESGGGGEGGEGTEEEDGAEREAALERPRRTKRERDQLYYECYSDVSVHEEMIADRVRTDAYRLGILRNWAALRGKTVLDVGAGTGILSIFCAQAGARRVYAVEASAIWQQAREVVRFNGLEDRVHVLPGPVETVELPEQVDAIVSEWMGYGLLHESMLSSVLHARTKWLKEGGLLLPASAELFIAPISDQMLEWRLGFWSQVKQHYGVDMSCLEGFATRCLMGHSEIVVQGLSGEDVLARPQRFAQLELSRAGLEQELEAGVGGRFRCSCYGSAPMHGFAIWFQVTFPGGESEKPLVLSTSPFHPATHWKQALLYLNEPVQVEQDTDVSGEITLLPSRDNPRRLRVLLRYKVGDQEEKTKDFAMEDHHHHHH
T2 sequence (Q9NR22 whole entry, canonical isoform): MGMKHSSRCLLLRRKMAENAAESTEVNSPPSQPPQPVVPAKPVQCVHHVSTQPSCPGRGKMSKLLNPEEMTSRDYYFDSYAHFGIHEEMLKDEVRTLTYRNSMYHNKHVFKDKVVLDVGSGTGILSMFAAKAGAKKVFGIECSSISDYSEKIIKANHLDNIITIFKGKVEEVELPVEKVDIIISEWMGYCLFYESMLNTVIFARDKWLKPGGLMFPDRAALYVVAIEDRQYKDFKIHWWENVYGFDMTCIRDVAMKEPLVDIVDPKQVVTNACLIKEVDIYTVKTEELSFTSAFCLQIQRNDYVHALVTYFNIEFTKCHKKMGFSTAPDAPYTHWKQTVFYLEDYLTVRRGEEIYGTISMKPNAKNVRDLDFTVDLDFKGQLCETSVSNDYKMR
T3 sequence (Q99873 with tags, fused parts or gaps): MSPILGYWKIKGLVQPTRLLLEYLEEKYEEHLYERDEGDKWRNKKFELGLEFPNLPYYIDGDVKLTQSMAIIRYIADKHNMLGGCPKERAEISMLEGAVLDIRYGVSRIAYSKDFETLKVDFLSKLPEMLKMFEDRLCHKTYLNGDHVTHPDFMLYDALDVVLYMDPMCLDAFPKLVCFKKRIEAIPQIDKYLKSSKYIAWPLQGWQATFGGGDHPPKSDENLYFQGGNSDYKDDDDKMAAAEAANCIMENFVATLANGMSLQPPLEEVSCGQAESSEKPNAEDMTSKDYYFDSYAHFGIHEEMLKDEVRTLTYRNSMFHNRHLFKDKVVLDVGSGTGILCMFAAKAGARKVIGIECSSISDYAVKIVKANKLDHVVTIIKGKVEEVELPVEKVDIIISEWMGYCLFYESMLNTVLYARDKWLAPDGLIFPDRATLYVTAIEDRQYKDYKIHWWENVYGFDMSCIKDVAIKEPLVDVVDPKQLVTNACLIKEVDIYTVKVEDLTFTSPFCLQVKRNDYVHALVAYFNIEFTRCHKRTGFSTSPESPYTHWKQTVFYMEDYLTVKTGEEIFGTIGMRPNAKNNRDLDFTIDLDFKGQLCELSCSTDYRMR

Row | SMILES | IC50 (human PRMT6) [nM] | EC30 [1] [nM] | IC50 (human PRMT8) [nM] | IC50 (human PRMT1) [nM]
1 | CN(CCN)Cc1c[nH]nc1C1CCC(N2CCOCC2)CC1 (centres unmarked) [Compound 43, N^1-methyl-N^1-((3-(4-morpholinocyclohexyl)-1H-pyrazol-4-yl)methyl)ethane-1,2-diamine] | < 100 | < 3000 | – | –
2 | CN(CCN)Cc1c[nH]nc1C(C)(C)C [Compound 27] | 1010 to 3000 | > 12000 | – | –
3 | CNCCN(C)Cc1c[nH]nc1C1CCN(C(=O)CC(C)C)CC1 [Compound 40, 3-methyl-1-(4-(4-((methyl(2-(methylamino)ethyl)amino)methyl)-1H-pyrazol-3-yl)piperidin-1-yl)butan-1-one] | < 100 | – | 101 to 1000 | –
4 | CN(CCN)Cc1c[nH]nc1C1CC1 [Compound 12] | 1010 to 3000 | – | – | 1010 to 3000
